Reference: US20100184190A1, “Influencing viral lipid constituents” (priority 2006, published 2010)

Tested on: chicken embryo kidney (CEK) cells
Assay: FTIR microscopy of membrane phase transitions of treated CEK cell membranes
Type: cell-based
Details: treated versus control
Description: The hydrophobic pocket of cyclodexrins has the ability to sequester cholesterol from membranes. When membrane cholesterol content was reduced by cyclodextrin treatment, as compared to the control of FIG. 1A, lipid mobility was reduced and the lipids found more ordered, as shown in FIG. 1B.

| Substance | change of membrane lipid order / melting groups (FTIR) |
| --- | --- |
| cyclodextrin | significant increase in about 45 °C melting lipid ordered groups |
| sphingomyelinase | significant reduction in the lower melting groups and a large increase in more ordered high melting membrane lipid groups |
